Assay results published in ChEMBL document CHEMBL3763055, “Evaluation of synthetic coumarins for antiausterity cytotoxicity against pancreatic cancers” (Bioorg Med Chem Lett, 2016).
Active and inactive are the calls of the source. The calls are words filed in the database; no cut-off is given here.

How the values were obtained:
[1] = Antiausterity activity against human PANC1 cells under nutrient deprived condition assessed as reduction in cell viability incubated for 24 hrs by WST-8 assay; format: functional, PANC-1
[2] = Cytotoxicity against human PANC1 cells in DMEM assessed as reduction in cell viability at 100 uM incubated for 24 hrs by WST-8 assay; format: cell-based; settings: panc-1, 24 h
[3] = Antiausterity activity against human Capan1 cells under nutrient deprived condition assessed as reduction in cell viability incubated for 24 hrs by WST-8 assay; format: functional, CAPAN-1
[4] = Antiausterity activity against human MIAPaCa2 cells under nutrient deprived condition assessed as reduction in cell viability incubated for 24 hrs by WST-8 assay; format: functional, MIA PaCa-2
PANC-1 = assay: Induction of apoptosis in human PANC1 cells under nutrient deprived condition at 50 uM after 24 hrs by ethidium bromide/acridine orange staining based fluorescence microscopy; format: functional, cell-based

CCCCCCCCOc1ccc2c(C)cc(=O)oc2c1C
PC50 [1]: >100 µM | Activity [2]: Non-toxic

CCCCCCCCn1cc(COc2ccc3ccc(=O)oc3c2)nn1
PC50 [1]: >100 µM | Activity [2]: Non-toxic

O=c1ccc2ccc(OCc3cn(Cc4ccc(C(F)(F)F)cc4)nn3)cc2o1
PC50 [3]: >100 µM | PC50 [1]: >100 µM | PC50 [4]: 9.6 µM | Activity [2]: Non-toxic

O=c1ccc2ccc(OCc3cn(Cc4cccc(C(F)(F)F)c4)nn3)cc2o1
Activity (PANC-1): Active | PC50 [3]: 18 µM | PC50 [1]: 29 µM | PC50 [4]: 8.5 µM | Activity [2]: Non-toxic

Cc1cc(=O)oc2cc(OCC3CC3)ccc12
PC50 [1]: >100 µM | Activity [2]: Non-toxic

CCCCCCCCCCCCOc1ccc2c(CC)cc(=O)oc2c1
PC50 [1]: 51 µM | Activity [2]: Non-toxic

COc1ccc(Cn2cc(COc3ccc4ccc(=O)oc4c3)nn2)cc1
PC50 [1]: >100 µM | Activity [2]: Non-toxic

CC(C)c1ccc(Cn2cc(COc3ccc4ccc(=O)oc4c3)nn2)cc1
PC50 [1]: >100 µM | Activity [2]: Non-toxic

CC(C)=CCC/C(C)=C/COc1cc2ccc(=O)oc2cc1O
PC50 [1]: 7.2 µM

CCCCCCCCOc1ccc2c(C)cc(=O)oc2c1
PC50 [1]: 48 µM | Activity [2]: Non-toxic

CCCCCCCCCCCCOc1ccc2c(C(F)(F)F)cc(=O)oc2c1C
PC50 [1]: >100 µM | Activity [2]: Non-toxic

CCCCCCCCCCCCCCCCOc1ccc2c(C(F)(F)F)cc(=O)oc2c1
PC50 [1]: >100 µM | Activity [2]: Non-toxic

CC(C)(CC(=O)/C=C/c1cccc(C(F)(F)F)c1)C1Cc2c(ccc3ccc(=O)oc23)O1 (configuration not stated)
PC50 [1]: 0.079 µM

CC(C)(CC(=O)/C=C/c1ccc(C(F)(F)F)cc1)C1Cc2c(ccc3ccc(=O)oc23)O1 (configuration not stated)
PC50 [1]: 0.023 µM

CCCCCCCCCCCCOc1ccc2c(C)cc(=O)oc2c1
PC50 [1]: >100 µM | Activity [2]: Non-toxic

CCCCCCCCCCCCCCOc1ccc2c(C)cc(=O)oc2c1
PC50 [1]: >100 µM | Activity [2]: Non-toxic

O=c1ccc2ccc(OCc3cn(Cc4ccccc4)nn3)cc2o1
PC50 [1]: >100 µM | Activity [2]: Non-toxic

CCCCCCCCCCCCCCCCOc1ccc2c(C(F)(F)F)cc(=O)oc2c1C
PC50 [1]: >100 µM | Activity [2]: Non-toxic

CCCCCCCCOc1ccc2c(C(F)(F)F)cc(=O)oc2c1
PC50 [1]: 63 µM | Activity [2]: Non-toxic

CCCCCCCCOc1ccc2c(CC)cc(=O)oc2c1
PC50 [1]: 29 µM | Activity [2]: Non-toxic
